In data set [1] the test system is K. pneumoniae (ATCC 10031). Description: microbe, parasite or virus in culture. To be noted: Klebsiella pneumoniae, ATCC10031, read-out: MIC in the presence of thymidine. The class given is cell-based.
Data set [2] concerns K. pneumoniae (ATCC 10031). In kind it is cell-based, Klebsiella pneumoniae.
For the next data set, the target named is K. pneumoniae DHFR (Klebsiella pneumoniae, UniProt A6T4I4). Description: biochemical.
The test system of the next data set is E. coli (ATCC 25922). In kind it is cell-based.

≈ marks a conversion by molar mass, not a printed value.

One may read the IC50 as the concentration at which inhibition is half-maximal. A higher IC50 goes with a need for much substance.

As to `COc1cc(Cc2cnc(N)nc2N)cc(OC)c1OC` [TMP, trimethoprim], the MIC in data set [1] was above 20 µg/mL. Also, the “MIC Kp” value in data set [2] was found to be 0.0781 µg/mL (≈ 0.269 µM). The compound further yielded an IC50 at K. pneumoniae DHFR of 106 ± 6 nM. Also, in the data set with E. coli (ATCC 25922), the “Time-kill: bacteriostatic or bactericidal” value was “bacteriostatic”.

These data come from article PMC5108240 (ACS infectious diseases, 2016).
